Assays:
MTT assay (cytotoxicity) = assay type: cell-based; settings: human; H9 cells; five days incubation
Description: In order to roughly assess the cytotoxicity of the compounds provided by the invention, several such compounds were tested in the MTT Assay described below. Compounds having a relatively high CC50 are preferred.
The MTT [3-(4,5-dimethylthiazol-2-yl)-2,5 diphenyl tetrazolium bromide) assay is based on cleavage of tetrazolium bromide by metabolically active cells, resulting in a highly quantitative blue color. This assay has been previously described (1) but has been optimized for the purposes of the testing reported herein.
The H9 cell line (2), an established human lymphoma suspension cell line grown in RPMI 1640 supplemented with 10% fetal bovine serum, is used as the target cell line in the assay. Cells (100µL) are plated in microtest plate wells at a concentration of 10^5 cells per mL in the presence of varying concentrations of inhibitor. The cells are incubated at 37°C in a humidified CO2 incubator. Five days later, 20µL of MTT (5mg/mL in RPMI 1640, sonicated, 0.2 micron filtered, and stored at 4°C) is added to each well. After 4 hours additional incubation at 37°C, 60µL of Triton-X is added to each well and thoroughly mixed to aid the solubilization of the crystals. Absolute ethanol (5µL) is added to each well and the resulting mixture is incubated for 30 minutes at 60°C and immediately read on a plate reader (Dynatech) at a wavelength of 570nm.
Data from this assay are used to generate a nonlinear regression analysis which yields an CC50.

HIV-1 RT Y188L = target: T1, HIV-1 RT Y188L (Human immunodeficiency virus type 1 group M subtype B, UniProt P03367, Y787L); experiment: Reverse Transcriptase (RT) Assay, Y188L mutant enzyme; assay type: biochemical, Human Immunodeficiency Virus (HIV-1); settings: 1 µM compound
T1 construct: effective against the reverse transcriptase of many mutant viruses; made in house

HIV-1 RT Y181C = target: T2, HIV-1 RT Y181C (Human immunodeficiency virus type 1 group M subtype B, UniProt P03367, Y780C); experiment: Reverse Transcriptase (RT) Assay, Y181C mutant enzyme; assay type: biochemical, Human Immunodeficiency Virus (HIV-1); settings: 1 µM compound; for inhibition at 1 µM: read-out: Reverse Transciptase Assay % inhibition (1 µM) Y181C
T2 construct: Utilization of mutant RT eraymes (Y181C and Y181L, prepared by site-directed mutagenesis); made in house
From the text: (§1) Among the enzymes for which Human Immunodeficiency Virus (HIV-1) encodes is a reverse transcriptase (1), so-named because it transcribes a DNA copy from an RNA template. This activity can be quantitatively measured in a cell-free enzyme assay, which has been previously described (2), and is based upon the observation that reverse transcriptase is able to use a synthetic template [poly r(C) primed with oligo d(G)] to transcribe a radio-labelled, acid-precipitable DNA strand utilizing ^3H-dGTP as a substrate. The assay described below utilizes the wild type (WT) enzyme, which is the predominant form of the enzyme observed in patients infected with HIV-1. Utilization of mutant RT eraymes (Y181C and Y181L, prepared by site-directed mutagenesis in which the tyrosine residue at codon 181 has been replaced by a cysteine or a leucine residue, respectively) and analogous assay conditions allows compounds to be evaluated for their effectiveness at inhibiting these mutant enzymes.
(§2) The 2X concentrated stock reaction mixture is aliquoted and stored at -20°C. The mixture is stable and thawed for use in each assay. This enzyme assay has been adapted to a 96 well microtiter plate system, and has been previously described (6). Tris buffer (50 mM, pH 7.4), vehicle (solvent diluted to match the compound dilution), or compounds in vehicle are dispensed into 96-well microtiter plates (10µL/well; 3 wells/ compound). The HIV-1 RT enzyme is thawed, diluted in 50mM Tris pH 7.4 so that fifteen µL of diluted enzyme contain 0.001 Unit (one unit is that amount of enzyme to transform 1 micromole of substrate per minute at 25°C), and fifteen µL are dispensed per well. Twenty µL of 0.12-0.5M EDTA are added to the first three wells of the microtiter plate. EDTA chelates the Mg^++ present and prevents reverse transcription. This group serves as background polymerization which is subtracted from all other groups. Twenty-five ul of the 2X reaction mixture are added to all wells and the assay is allowed to incubate at room temperature for 60 minutes. The assay is terminated by precipitating the DNA in each well with 50µL of 10% trichloracetic acid (TCA) (10% w/v) in sodium pyrophosphate (1% w/v). The microtiter plate is incubated for 15 minutes at 4°C and the precipitate is fixed onto #30 glass fiber paper (Schleicher & Schuell) using a Skatron semi-automatic harvester. The filters are then washed with additional TCA (5%) containing sodium pyrophosphate (1%), rinsed with aqueous ethanol (70%), dried, and transferred to scintillation vials (6). Each vial receives 2 mL of scintillation cocktail and is counted in a Beckman beta counter. The calculation for percent inhibition is as follows: % inhibition =(CPM Mean Test Value - CPM Mean Control Value X100)/(CPM Mean Control Value) [formula]

[1] = target: T3, HIV-1 RT wild type (WT) enzyme (Human immunodeficiency virus type 1 group M subtype B, UniProt P03367); experiment: Reverse Transcriptase (RT) Assay, wild type enzyme (RNA-dependent DNA polymerase activity); assay type: biochemical, Human Immunodeficiency Virus (HIV-1); settings: 1 µM compound; for inhibition at 1 µM: read-out: Reverse Transciptase Assay % inhibition (1 µM) WT
T3 construct: Reverse transcriptase enzyme from the LAV strain of Human Immunodeficiency Virus (HIV-1) (1) was isolated from the bacterial strain JM109; made in house; host or cells: E. coli JM109 (clone pBRTprt1+ in vector pIBI21, lac promoter)
From the text: Utilizing the Reverse Transcriptase (RT) Assay described below, compounds can be tested for their ability to inhibit the RNA-dependent DNA polymerase activity of HIV-1 RT. Certain specific compounds described in the Examples which appear below, were so tested.
as §1
Reverse transcriptase enzyme from the LAV strain of Human Immunodeficiency Virus (HIV-1) (1) was isolated from the bacterial strain JM109 (3) expressing the DNA clone pBRTprt1+ (2) which is under the control of the lac promotor in the expression vector pIBI21 (4). An overnight culture grown in 2XYT medium (37°C, 225 rpm) (5) supplemented with 100 µg/mL ampicillin for positive selection is inoculated at a 1:40 dilution into M9 medium supplemented with 10µg/mL thiamine, 0.5% casamino acids, and 50 µg/mL ampicillin (5). The culture is incubated (37°C, 225 rpm) until it reaches an OD540 of 0.3-0.4. At that time the repressor inhibitor IPTG (isopropyl β-D-thiogalactopyranoside) is added to 0.5mM, and the mixture is incubated for 2 additional hours. Bacteria are pelleted, resuspended in a 50mM Tris, 0.6mM EDTA, 0.375M NaCl buffer and digested by the addition of lysozyme (1mg/mL) for 30 minutes on ice. The cells are lysed by the addition of 0.2% NP-40 and brought to 1M NaCl.
After removal of the insoluble debris by centrifugation, the protein is precipitated by the addition of 3 volumes of saturated aqueous ammonium sulfate. The enzyme is pelleted, resuspended in RT buffer (50mM Tris pH 7.5, 1mM EDTA, 5mM DTT, 0.1% NP-40, 0.1M NaCI, and 50% glycerol), and stored at -70°C for further use.
as §2, with “The filters are then washed with additional TCA (5%) containing sodium pyrophosphate (1%), rinsed with aqueous ethanol (70%), dried, and transferred to scintillation vials (6). Each vial receives 2 mL of scintillation cocktail and is counted in a Beckman beta counter. The calculation for percent inhibition is as follows: % inhibition =(CPM Mean Test Value - CPM Mean Control Value X100)/(CPM Mean Control Value) [formula]” left out

[2] = tested on: HTLV-IIIB strain of HIV-1; experiment: Syncytia (human T-cell culture) assay; assay type: cell-based; settings: Human immunodeficiency virus 1, IIIB, 96 h; c8166 cells; read four days after virus challenge
Description: In order to confirm that compounds which are active in the RT Assay also have the ability to inhibit HIV replication in a living system, compounds according to the invention were also tested in the human T-Cell Culture (Syncytia) Assay described below.
Formation of syncytia is a feature of in vitro cultures of CD4+ T-cells infected with HIV-1. In this assay, T-cells are treated with a putative replication inhibiting compound and then infected with HIV-1. After incubation, the culture is checked for the formation of syncytia. The absence or reduction in the number of syncytia is used as a measure of the test compound's ability to inhibit HIV replication.
The target cells, designated c8166, are a subclone of human lymphoma cells of T-cell origin and are established at an initial density of 5x10^4 per 100 ul in RPMI 1640 (+ 10% fetal bovine serum) culture medium in 96 well flat bottom plates. A selected amount of test compound, dissolved in DMSO, is included. After 24 hours, 50-100 TCID50's (the dose that results in induced effect in 50% of test cultures) of the HTLV-IIIB strain of HIV-1 (2) are inoculated into each culture. Control cultures receive compound or virus only. Four days after virus challenge, cultures are visually examined for the frequency and distribution of virus-induced giant cell syncytia. The percent inhibition by the test compound is determined by comparison with control values. Confirmation of the presence or absence of virus replication is accomplished by harvesting the cell free culture fluids from all experimental groups to determine the presence or absence of infectious progeny through the induction of syncytia formation in secondary human T-cell cultures after 3 days.

Structure (SMILES)	CC50 at 120 h (MTT assay (cytotoxicity)) [µM]	Reverse Transciptase Assay % inhibition (1 µM) Y188L (HIV-1 RT Y188L) [%]	inhibition at 1 µM (HIV-1 RT Y181C) [%]	inhibition at 1 µM [1] [%]	IC50 [2] [µM]	Reverse Transciptase Assay % inhibition (1 µM) Y188L (HIV-1 RT Y188L; 1 µM) [%]	Reverse Transciptase Assay % inhibition (1 µM) Y181C (HIV-1 RT Y181C) [%]	Reverse Transciptase Assay % inhibition (1 µM) WT [1] [%]
CCN1c2ncccc2C(=O)N(C)c2ccc(-c3cnn(CC)c3)nc21 [Example 2, 5,11-Dihydro-11-ethyl-2-(1-ethylpyrazol-4-yl)-5-methyl-6H-dipyrido[3,2-b:2',3'-e][1,4]-diazepin-6-one]	> 60	13	72	67				
CCCN1c2nc(-c3cn[nH]c3)ccc2NC(=O)c2cccnc21 [Example 4, 5,11-Dihydro-11-n-propyl-2-(4-pyrazolyl)-6H-dipyrido[3,2-b:2',3'-e][1,4]diazepin-6-one]	> 60	29	54	60				
CCCN1c2ncccc2C(=O)N(C)c2ccc(-c3cn[nH]c3)nc21 [Example 5, 5,11-Dihydro-5-methyl-11-n-propyl-2-(4-pyrazolyl)-6H-dipyrido[3,2-b:2',3'-e][1,4]diazepin 6-one]	> 60	63	90	90				
CCN1c2ncccc2C(=O)N(C)c2ccc(-c3ccc[nH]3)nc21 [Example 13, 5,11-Dihydro-11-ethyl-5-methyl-2-(2-pyrrolyl)-6H-dipyrido[3,2-b:2',3'-e][1,4]diazepin-6-one]		17	80	88	0.16			
CN1C(=O)c2cccnc2N(C)c2nc(-c3ccc[nH]3)ccc21 [Example 24, 5,11-Dihydro-5,11-dimethyl-2-(2-pyrrolyl)-6H-dipyrido[3,2-b:2',3'-e][1,4]diazepin-6-one]		18	50	39				
CCN1c2ncccc2C(=O)N(C)c2ccc(-c3cn[nH]c3)nc21 [Example 26, 5,11-Dihydro-11-ethyl-5-methyl-2-(4-pyrazolyl)-6H-dipyrido[3,3-b:2',3'-e][1,4]diazepine-6-one]						20	33	64
CCN1c2ncccc2C(=O)N(C)c2ccc(-c3cc4cc(OC)ccc4[nH]3)nc21 [Example 27, 5,11-Dihydro-11-ethyl-2-(5-methoxyindol-2-yl)-5-methyl-6H-dipyrido[3,2-b:2',3'-e][1,4]-diazepin-6-one]		58	45	61				
CCN1c2ncccc2C(=O)N(C)c2ccc(-c3c[nH]c4ccccc34)nc21 [Example 28, 5,11-Dihydro-11-ethyl-2-(indol-3-yl)-5-methyl-6H-dipyrido[3,2-b:2',3'-e][1,4]diazepin-6-one]	> 15	72	93	96				
